Patent US7767694B2, “Pharmaceutical composition having prokinetic effect” (N-Gene Research Laboratories Inc., priority 2004, dated 2010)

Test system: sphincter of Oddi muscle rings
Experiment: Biliary sphincter of Oddi muscle rings with cholecystokinin octapeptide and BGP-15 (isometric tension, organ bath)
Settings: BGP-15 20 mg/kg daily for 5 days, CCK-8 5 × 10^−7 M, combination: BGP-15 pretreatment 5 days then CCK-8, average of 6
Protocol: The sphincter of Oddi was removed from adult male New Zealand white rabbits weighing 3.5-4 kg, and muscle ring of about 3 mm width were prepared. […] The organ bath was maintained at 37° C. and aerated continuously with carbogen (5% of carbon dioxide in oxygen according to European Pharmacopoeia, Edition III). The initial tension was set to 10 mN and the rings were allowed to equilibrate over 1 hour.
In case of each test type, 6 parallel experiments were carried out, and the average of the results obtained was determined. The following test types were made:
treatment with cholecystokinin octapeptide to simulate the effect existing in the living organism,
treatment with organ bath (control group).
In the treatment with cholecystokinin octapeptide, 5×10^-7 M of the polypeptide was employed.

Cholecystokinin octapeptide [CCK-8]
Max. relaxation (control 0): 5 mN
Max. tonic contraction (control 10): 24 mN
Frequency of contraction (control 13): 19 c/min.
Max. contraction (control 16): 29 mN
